Consider three molecules from ChEMBL document CHEMBL1141051, “Antiviral 6-amino-quinolones: molecular basis for potency and selectivity” (Bioorg Med Chem Lett, 2005).

pEC50: −log10 of the molar value.

In general, pEC50 refers to −log10 of the EC50, conventionally taken in molar units.

In experiment [1] the target is T1, Protein Tat (Human immunodeficiency virus type 1 group M subtype B (isolate HXB2)(HIV-1)) (UniProt P04608).
T1 sequence (whole entry): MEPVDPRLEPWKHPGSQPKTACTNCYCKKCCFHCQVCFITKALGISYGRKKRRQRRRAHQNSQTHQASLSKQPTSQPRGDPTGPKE
In words: Binding constant (K) against Tat/TAR using 1:1 quinolone/Mg2+ complex done at 25 degree C with pH 7.5. Particulars: Human immunodeficiency virus 1.

Experiment [2] addresses Nucleic Acid. In words: Effective concentration required for binding to wild-type TAR using electrophoretic mobility shift assays done at 25 degree C with pH 7.5. It is filed as nucleic-acid assay, Human immunodeficiency virus 1. Background: Mobility shift assays separate free from complexed probe on a gel.
Experiment [3] deals with Nucleic Acid. In words: Effective concentration required for binding to mutant double stranded TAR using electrophoretic mobility shift assays done at 25 degree C with pH 7.5. Format: nucleic-acid assay, Human immunodeficiency virus 1.
In experiment [4] the target is Nucleic Acid. In words: Effective concentration required for binding to tRNA using electrophoretic mobility shift assays done at 25 degree C with pH 7.5. It is filed as nucleic-acid assay, Human immunodeficiency virus 1.
The target in experiment [5] is Nucleic Acid. The experiment is described as follows: Effective concentration required for binding to mutant loopless TAR using electrophoretic mobility shift assays done at 25 degree C with pH 7.5. Format: nucleic-acid assay, Human immunodeficiency virus 1.

For the molecule `Nc1cc2c(=O)c(C(=O)O)cn(C3CC3)c2cc1N1CCN(c2cccc(C(F)(F)F)c2)CC1`, the K in experiment [1] was found to be 13600 M⁻¹. The negative-log EC50 (pEC50) in experiment [2] was 6.72; in experiment [3], 7.30; in experiment [4], 6.89.

Regarding `Cn1cc(C(=O)O)c(=O)c2cc(N)c(N3CCN(c4ccccn4)CC3)cc21`, in experiment [1], the K came out at 6650 M⁻¹. Further, the values for the pEC50 in experiment [2], in experiment [4] and in experiment [5] were 6.68, less than 4.30 and 6.49, respectively.

With `O=C(O)c1cn(C2CC2)c2cc(N3CCNCC3)c(F)cc2c1=O`, in experiment [1], the K amounted to 790 M⁻¹.
